According to patent US10501481B2, “Heterocyclic compounds and their use in preventing or treating bacterial infections” (priority 2015, dated 2019):

Experiments:
OXA-1 = target: T1, OXA-1 (Escherichia coli, UniProt P13661); assay: β-lactamase inhibitory activity, nitrocefin hydrolysis; type: biochemical
T1 construct: made in house; host or cells: E. coli
Protocol: Enzyme activity was monitored by spectrophotometric measurement of nitrocefin (NCF-TOKU-E, N005) hydrolysis at 485 nm, at room temperature and in assay buffer A: 100 mM Phosphate pH7, 2% glycerol and 0.1 mg/mL Bovine serum albumin (Sigma, B4287). […] To a transparent polystyrene plate (Corning, 3628) were added in each well 5 μL DMSO or inhibitor dilutions in DMSO and 80 μL enzyme in buffer A. Plates were immediately read at 485 nm in a microplate spectrophotometer (BioTek, PowerWave HT) to enable background subtraction. After 30 min of pre-incubation at room temperature, 15 μL of NCF (200 μM final) were finally added in each well. Final enzyme concentrations were 0.1 nM (TEM-1), 0.075 nM (SHV-1), 0.4 nM (CTX-M-15), 1 nM (KPC-2), 0.2 nM (P99 AmpC), 0.2 nM (CMY-37), 0.4 nM (AmpC P. aeruginosa), 0.2 nM (OXA-1), 1.2 nM (OXA-11), 0.4 nM (OXA-15) and 0.3 nM (OXA-48). After 20 min incubation at room temperature, plates were once again read at 485 nm. Enzyme activity was obtained by subtracting the final signal by the background, and was converted to enzyme inhibition using non inhibited wells. IC50 curves were fitted to a classical Langmuir equilibrium model with Hill slope using XLFIT (IDBS).

[1] = system: E. cloacae 260508 (TEM-1, CTX-M-15); assay: MIC broth microdilution, alone and synergy with ceftazidime; settings: for MIC: Enterobacter cloacae, read-out: MIC compounds of the invention alone; for MIC of CAZ in combination with compound at 4 μg/mL: strain 260508, compound fixed at 4 μg/mL
[2] = system: K. pneumoniae UFR68 (TEM-1, SHV-11, CTX-M-15, KPC-3); assay: as above; settings: for MIC: Klebsiella pneumoniae, read-out: MIC compounds of the invention alone; for MIC of CAZ in combination with compound at 4 μg/mL: strain UFR68, compound fixed at 4 μg/mL
[3] = system: E. cloacae UFR85 (TEM-1, CTX-M-15, derepressed AmpC); assay: as above; settings: for MIC of CAZ in combination with compound at 4 μg/mL: strain UFR85, compound fixed at 4 μg/mL
[4] = system: E. cloacae UFR70 (TEM-1, CTX-M-15, CMY-2, OXA-1, Porin loss); assay: as above; settings: for MIC: Enterobacter cloacae, read-out: MIC compounds of the invention alone; for MIC of CAZ in combination with compound at 4 μg/mL: strain UFR70, compound fixed at 4 μg/mL
[5] = system: E. coli UFR18 (CTX-M-15, OXA-204); assay: as above; settings: for MIC: Escherichia coli, read-out: MIC compounds of the invention alone; for MIC of CAZ in combination with compound at 4 μg/mL: strain UFR18, compound fixed at 4 μg/mL
[6] = system: E. coli 131119 (TEM-1, OXA-48); assay: as above; settings: for MIC: Escherichia coli, read-out: MIC compounds of the invention alone; for MIC of CAZ in combination with compound at 4 μg/mL: strain 131119, compound fixed at 4 μg/mL
[7] = system: K. pneumoniae UFR24 (TEM-1, SHV-2, SHV-11, OXA-1, OXA-48, OXA-47); assay: as above; settings: for MIC of CAZ in combination with compound at 4 μg/mL: strain UFR24, compound fixed at 4 μg/mL
[8] = system: K. pneumoniae 200047 (TEM-1, SHV-32, CTX-M-15, OXA-1); assay: as above; settings: for MIC: Klebsiella pneumoniae, read-out: MIC compounds of the invention alone; for MIC of CAZ in combination with compound at 4 μg/mL: strain 200047, compound fixed at 4 μg/mL
[9] = system: E. coli UFR32 (TEM-1, VEB-1, OXA-10); assay: as above; settings: for MIC of CAZ in combination with compound at 4 μg/mL: strain UFR32, compound fixed at 4 μg/mL
[10] = system: E. coli UFR52 (TEM-1, SHV-12, IMP-8); assay: as above; settings: for MIC: Escherichia coli, read-out: MIC compounds of the invention alone; for MIC of CAZ in combination with compound at 4 μg/mL: strain UFR52, compound fixed at 4 μg/mL
[11] = system: P. aeruginosa UFR35 (OXA-23); assay: as above; settings: for MIC of CAZ in combination with compound at 4 μg/mL: strain UFR35, compound fixed at 4 μg/mL
[12] = system: P. aeruginosa UFR90 (derepressed AmpC, OprD−); assay: as above; settings: strain UFR90; compound fixed at 4 μg/mL
[13] = system: P. aeruginosa UFR92 (derepressed AmpC, OprD−); assay: as above; settings: strain UFR92; compound fixed at 4 μg/mL
[14] = system: P. aeruginosa UFR47 (VIM-1); assay: MIC broth microdilution, compounds alone; settings: Pseudomonas aeruginosa, read-out: MIC compounds of the invention alone
[15] = system: P. aeruginosa UFR48 (VIM-2); assay: MIC broth microdilution, compounds alone; settings: Pseudomonas aeruginosa, read-out: MIC compounds of the invention alone
[16] = system: P. aeruginosa UFR59 (IMP-29); assay: MIC broth microdilution, compounds alone; settings: Pseudomonas aeruginosa, read-out: MIC compounds of the invention alone

T1 sequence (P13661 26-276): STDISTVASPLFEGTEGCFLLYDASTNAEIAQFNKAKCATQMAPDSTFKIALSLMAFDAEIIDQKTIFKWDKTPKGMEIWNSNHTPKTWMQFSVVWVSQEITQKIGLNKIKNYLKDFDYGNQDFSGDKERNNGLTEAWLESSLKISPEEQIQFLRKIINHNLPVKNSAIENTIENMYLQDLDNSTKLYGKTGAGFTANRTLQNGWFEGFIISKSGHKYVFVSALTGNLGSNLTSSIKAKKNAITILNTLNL

Row | SMILES | IC50 (OXA-1) [nM] | MIC [1] [µg/mL] | MIC of CAZ in combination with compound at 4 μg/mL [1] [µg/mL] | MIC [2] [µg/mL] | MIC of CAZ in combination with compound at 4 μg/mL [2] [µg/mL] | MIC of CAZ in combination with compound at 4 μg/mL [3] [µg/mL] | MIC [4] [µg/mL] | MIC of CAZ in combination with compound at 4 μg/mL [4] [µg/mL] | MIC [5] [µg/mL] | MIC of CAZ in combination with compound at 4 μg/mL [5] [µg/mL] | MIC [6] [µg/mL] | MIC of CAZ in combination with compound at 4 μg/mL [6] [µg/mL] | MIC of CAZ in combination with compound at 4 μg/mL [7] [µg/mL] | MIC [8] [µg/mL] | MIC of CAZ in combination with compound at 4 μg/mL [8] [µg/mL] | MIC of CAZ in combination with compound at 4 μg/mL [9] [µg/mL] | MIC [10] [µg/mL] | MIC of CAZ in combination with compound at 4 μg/mL [10] [µg/mL] | MIC of CAZ in combination with compound at 4 μg/mL [11] [µg/mL] | MIC of CAZ in combination with compound at 4 μg/mL [12] [µg/mL] | further results
1 | Cn1c2c(sc1=O)C1CN(C2)C(=O)N1OS(=O)(=O)[O-].[Na+] (centres unmarked) [Example 1, Sodium (5-methyl-4,9-dioxo-3-thia-5,8,10-triaza-tricyclo[6.2.1.0^2.6]undec-2(6)-en-10-yl) sulfate] | 63 | 4 | <0.25 | 32 | 64 | <0.25 | 4 | <0.25 | 4 | <0.25 | 1 | <0.25 | 4 | 4 | <0.25 | <0.25 | 8 | 0.5 | 4 | 64 | MIC of CAZ in combination with compound at 4 μg/mL [13]: 32 µg/mL
2 | COC(=O)Cn1c2c(sc1=O)C1CN(C2)C(=O)N1OS(=O)(=O)[O-].[Na+] (centres unmarked) [Example 2, Sodium [5-(2-methoxy-2-oxo-ethyl)-4,9-dioxo-3-thia-5,8,10-triaza-tricyclo[6.2.1.0^2.6]undec-2(6)-en-10-yl] sulfate] | 38 | 4 | <0.25 | 32 | 32 | 16 |  | 1 | 4 | 0.5 | 2 | <0.25 | 4 |  | <0.25 | <0.25 | 8 |  |  |  | MIC ([7]; Klebsiella pneumoniae, read-out: MIC compounds of the invention alone): 16 µg/mL
3 | NCCn1c2c(sc1=O)C1CN(C2)C(=O)N1OS(=O)(=O)[O-].[Na+] (centres unmarked) [Example 4, Sodium and 2,2,2-trifluoroacetate [5-(2-azaniumethyl)-4,9-dioxo-3-thia-5,8,10-triaza-tricyclo[6.2.1.0^2.6]undec-2(6)-en-10-yl] sulfate] | 460 | 8 | <0.25 |  | <0.25 | <0.25 | 4 | <0.25 | 0.5 | <0.25 | 2 | <0.25 | ≤0.25 | 8 | <0.25 | <0.25 | 2 | <0.25 | 2 | 1 | MIC [14]: 16 µg/mL; MIC [15]: 8 µg/mL; MIC [16]: 8 µg/mL; MIC ([3]; Enterobacter cloacae, read-out: MIC compounds of the invention alone): 2 µg/mL; MIC ([9]; Escherichia coli, read-out: MIC compounds of the invention alone): 1 µg/mL; MIC ([11]; Pseudomonas aeruginosa, read-out: MIC compounds of the invention alone): 8 µg/mL; MIC of CAZ in combination with compound at 4 μg/mL [13]: ≤0.25 µg/mL
4 | O=C1N2Cc3c(sc(=O)n3CCO)C(C2)N1OS(=O)(=O)[O-].[Na+] (centres unmarked) [Example 5, Sodium [5-(2-hydroxyethyl)-4,9-dioxo-3-thia-5,8,10-triaza-tricyclo[6.2.1.0^2.6]undec-2(6)-en-10-yl) sulfate] | 310 | 4 | <0.25 | 8 | ≤0.25 | <0.25 | 1 | <0.25 | 2 | <0.25 |  | <0.25 | <0.25 | 2 | <0.25 | <0.25 | 0.5 | <0.25 |  |  | 
